Experimental data as given in patent US20130136778A1, “PTEROSTILBENE (PTER) FOR USE IN THE PREVENTION AND/OR TREATMENT OF SKIN DISEASES, DAMAGES OR INJURIES” (GREEN MOLECULAR, S.L., priority 2009, published 2013).

How the values were obtained:
mice = assay: Skinfold after continuous administration of treatments (side effects on skin); type: in vivo; conditions: daily for 6 consecutive days; 10 μmoles/mouse polyphenols, 0.5 μmoles/mouse dexamethasone
Method: FIG. 17. […] The application of the treatments 10 μmoles/mouse of polyphenols and 0.5 μmoles/mouse of dexamethasone was performed daily on a third of the back of the mice for 6 consecutive days. The skinfold was measured with the help of a vernier caliper.*p>0.001 with regards to the control. ANOVA followed by a Tukey test.
Prior to evaluating the results of different treatments on different models of dermatitis, the possible side effects of continues administration of polyphenols on the skin of the mice had to be evaluated as shown in FIG. 17. For this purpose, the dose for this daily evaluation was administered over 6 consecutive days.

SKH-1 mice [1] = assay: Anatomopathological study of the skin after chronic exposure to UV-B; type: in vivo; design: key to Stroma: Parakeratosis: (+) light; (+++) serious; conditions: after 30 weeks chronic UV-B 180 mJ/cm2
Method: Histochemical techniques were used to study the skin tissues of the different procedures, at a microscopic level.
The tissues were fixed in 4% formaldehyde in PBS over 24 h at 22° C. After the tissues were fixed, they had to be dehydrated in large amounts of ethanol and placed in a hydrophobic and xylene mixture to allow the paraffin to penetrate the tissues to provide sufficient consistency for slicing them thinly in a microtome.
The samples in paraffin were processed with the microtome obtaining slices of about 5-10 μm. The samples were spread over a drop of gelatin at 37° C. and were collected in gelatinized slides.
The protocol used for staining the samples was: • 1. Incubation with Mayer's Hematoxylin for 10-15 minutes. • 2. Wash under running water until bluish. • 3. Incubate with Eosin (1%) for 2-4 minutes. • 4. Eliminate the remaining eosin in ethanol 70° • 5. Dehydration. • 6. Rinse with xylol for 3 minutes. • 7. Let the trays dry out on the stove at 37°.
In relation to the histopathological exam of the tumors induced by chronic irradiation to UV in the SKH1 mice, it was confirmed that the treatment with UV-B produced a strong acanthosis due primarily to the inflammatory process; this gave way to the first signs of tumors, mostly of carcinoma type and not melanoma.
Both the reference compounds and the ones subject of this study (10 μmoles/mouse of polyphenols, or 200 μl of each photoprotector) were applied to the back of the mice for 20 minutes prior to their exposure to UV-B. Medium of groups of 20 mice. Every parameter was measured according to the degree of seriousness (+) light-(+++) serious.

SKH-1 mice [2] = assay: Skinfold thickness (edema) after acute UV-B exposure of 360 mJ/cm2; type: in vivo; conditions: FIG. 1
Method: UVB Acute exposure protocols were used: Mice underwent a single exposure of 360 mJ/cm2. The study was conducted at 24 hours after exposure. This protocol was used to evaluate the photoprotective effect of the compounds studied. With the same acute-phase protocol mice from all groups were irradiated. Subsequently mice remained in the animal storage area for a week to see the evolution of the inflammatory response and edema. For the UVB exposure studies (chronic or acute) a topical administration to the back of the mouse was conducted. The commercial sunscreens were applied directly on the mouse. The polyphenols in the study were administered in a liposomal preparation diluted 1:1 with Carbopol polymer which will be the vehicle for these liposomes. Each polyphenol dose administered was 10 μmol/mouse, as free acid. • 1. Edema formation: skinfold thickness was determined with a caliper 24 hours after the first exposure. • 2. Study of the thickness of the epidermis after exposure to acute irradiation (360 mj/cm^2 24 h hours and 7 days after irradiation). • 3. Histological studies: measuring, in the pictures obtained from histological sections, the thickness of the epidermis. With the purpose of assessing the effects of the photoprotective compounds studied, female mice SKH-1 of between 6-8 weeks old were subjected to a single exposure of 360 mJ/cm. For the ultraviolet B (UVB) irradiation exposure, a camera specifically prepared, available at our laboratory was used (Crosslinker; Bio-Link BLX 254) equipped with 5 tubes that produce 80% of the UVB radiation, with a maximum emission of 312 nm. The two protocols of UV-B exposure used were: • Intense exposure after a single exposure of 360 mJ/cm^2. The study was carried out 24 hours after the exposure. This protocol was used to assess the photoprotective effects of the compounds studied. • Intense exposure after a single exposure of 360 mJ/cm^2. The study was carried out 1 week after the exposure. The mice were kept in the shed for a week to observe the evolution of the inflammatory and edematous response. As reference, several commercial photoprotective products were used ([…] Heliocare). The reference compounds as well as the products object of this study, were applied on the back of the mice for 20 minutes after or 20 minutes before the irradiation with UV-B, to determine if the reaction observed was due to an effect of the solar filter or not. […] The skinfold was measured by making a fold on the skin from the back of the mice, from the axillae to the hips; the fold was measured with a vernier caliper. The increase in the fold was calculated by the difference between the initial point, before the effects of the reaction, and the thickness in each point.

SKH-1 mice [3] = assay: Thickness of the epidermis after acute UV-B exposure of 360 mJ/cm2; type: in vivo; conditions: FIG. 2, versus group treated only with UV-B
Method: UVB Acute exposure protocols were used: Mice underwent a single exposure of 360 mJ/cm2. The study was conducted at 24 hours after exposure. This protocol was used to evaluate the photoprotective effect of the compounds studied. With the same acute-phase protocol mice from all groups were irradiated. Subsequently mice remained in the animal storage area for a week to see the evolution of the inflammatory response and edema. • 1. Edema formation: skinfold thickness was determined with a caliper 24 hours after the first exposure. • 2. Study of the thickness of the epidermis after exposure to acute irradiation (360 mj/cm^2 24 h hours and 7 days after irradiation). • 3. Histological studies: measuring, in the pictures obtained from histological sections, the thickness of the epidermis. For studies of acute exposure skin samples were taken from the back of the mouse. These samples were fixed with 4% paraformaldehyde (24 hours) and embedded in paraffin. Following cutting the samples were stained with hematoxylin and eosin. The two protocols of UV-B exposure used were: • Intense exposure after a single exposure of 360 mJ/cm^2. The study was carried out 24 hours after the exposure. This protocol was used to assess the photoprotective effects of the compounds studied. • Intense exposure after a single exposure of 360 mJ/cm^2. The study was carried out 1 week after the exposure. The mice were kept in the shed for a week to observe the evolution of the inflammatory and edematous response. At 24 hours or 1 week after the administration of the different treatments the mice were sacrificed and their skin fixed with 4% PFA. To measure the thickness of the epidermis to evaluate possible hyperplasia, a computer program was used, Image J, calibrated with the assistance of a Neubauer camera which allowed the measuring of the epidermis. Results obtained were statistically analyzed by ANOVA and contrasted by the Tukey test and grouped according to the significant differences. […] Therefore PTER alone could be used efficiently in the prevention of skin diseases, injuries or damages induced by ultraviolet B radiation. The evaluation of skin thickness was carried out by using computer software (IMAGE J). Results obtained by ANOVA were contrasted by the Tukey test and grouped according to the significant differences. […] Therefore PTER separately could be used efficiently in the prevention of skin diseases, damages or injuries induced by ultraviolet B radiation.

[4] = Absorption spectrum of polyphenols (mechanical filter capacity); type: physicochemical; conditions: 1 mM in pure ethanol, 200-800 nm
Method: A solution of 1 mM of each polyphenol was prepared (PTER, Resveratrol and QUER) in absolute ethanol (HPLS quality; Quima) and the absorption spectrum was studied between 200 and 800 nm using a Multiskan Spectrum (ThermoScientific).
With the purpose of studying the capacity of the polyphenols used in this study, we decided to evaluate the absorption of light throughout the ultraviolet light spectrum as shown in FIG. 13.

SKH-1 mice [5] = assay: Experimental psoriasis induced by TPA; type: in vivo
Method: For the induction of psoriasis, the agent “12-O-tetradecanoylphorbol-13 acetate” (TPA) was used.
Since our objective was to assess the progress of the lesions caused by psoriasis in combination with the use of polyphenols, a model of continuous exposure and a weaker concentration of TPA were used, on a daily dose of 2 nmoles of TPA over a period of a week, which allowed us to observe the progress of the psoriasis.
The induction was performed with 2 nmol TPA/mouse on an area of 1 cm^2, applying 10 μL of the 200 μM solution in acetone. This application protocol was carried out taking into account that when applying 20 μL as stated in the model, the volume increased considerably and it lost its concentration, therefore it was decided to make it more concentrated.
As a standard treatment, Dexamethasone was used, (from Sigma Solution 25 mM in acetone). The administration of the standard treatment and the products to be tested were given 30 minutes prior to the application of TPA, both beginning on the same day.
The groups, of 6 mice, for this assessment were: • Not treated. • Reference compound: 0.5 μmoles of Dexamethasone (200 μL of one solution 25 mM in acetone). • Medium: 200 μl of vacuumed Liposomes. • Resveratrol: 200 μL of Resveratrol Liposomes (10 μmol in total). • PTER: 200 μL of PTER Liposomes (10 μmol in total). • QUER: 200 μL of QUER Liposomes (10 μmol in total). • PTER+QUER:: 200 μL of PTER Liposomes+QUER (10 μmol in total).
At 24 hours (day 7) after the last administration of the different treatments and TPA, 3 mice from each group were sacrificed and their skin fixed with 4% PFA. The remaining mice were kept under the treatment with no exposure to TPA, to verify if the skin recovered faster on the treatment than on its own. At 24 hours (day 9) after the last administration of the different treatments the rest of the mice were sacrificed and their skin fixed with 4% PFA.
The flaky aspect of the skin was quantified in a scale of 0-3, being 0, nothing; 1, mild; 2, moderate; 3, severe.

[6] = Asensi et al. 2002; cited from earlier work

SMILES | skinfold / structure of the skin after continuous administration (mice) | Tumor (no/mouse × group) (SKH-1 mice [1]; Table 4, applied 20 min prior) | Stroma: Parakeratosis (SKH-1 mice [1]; degree of seriousness) | formation of the edema (thickness of the skin) after severe UV-B exposure (SKH-1 mice [2]) | thickness of the epidermis 24 hours after irradiation (before or after application) (SKH-1 mice [3]) | absorption of light, range of maximum absorption [4] | increase of skinfold throughout the procedure (SKH-1 mice [5]; FIG. 23, 6 consecutive days, treatment 30 min prior to 2 nmol TPA) | increase in the skinfold 24 hours after the first administration of TPA (SKH-1 mice [5]; FIG. 24, treatment 30 min prior to 2 nmol TPA) | histological analysis of the lesions (SKH-1 mice [5]; FIG. 28, hematoxylin-eosin, TPA daily over 7 days) | bioavailability [6]
C[C@@H]1C[C@H]2[C@@H]3CCC4=CC(=O)C=C[C@]4(C)[C@@]3(F)[C@@H](O)C[C@]2(C)[C@@]1(O)C(=O)CO [dexamethasone] | did have side effects on the structure of the skin | – | – | – | – | – | – | – | – | –
Oc1ccc(/C=C/c2cc(O)cc(O)c2)cc1 [RESV, 3,4′,5-trihydroxy-trans-stilbene, reference compound] | – | 3.8 | + | the formation of the edema was reduced | good photoprotection role but not as a repairer | peaks or maximum absorption in the range of Ultraviolet B | the evolution was similar with an increase in the formation of edema | did not produce any effect on the increase of the skinfold in comparison to the TPA group | resembles more the group treated with TPA, than the group with PTER | low bioavailability
